Test [1] addresses T1, PRMT7 (Homo sapiens, UniProt Q9NVM4).
T1 construct: PRMT7 (residues 2–692, C-terminus); with an N-terminal His-tag; His (N); purchased Reaction Biology Corporation
T1 sequence (Q9NVM4 2-692): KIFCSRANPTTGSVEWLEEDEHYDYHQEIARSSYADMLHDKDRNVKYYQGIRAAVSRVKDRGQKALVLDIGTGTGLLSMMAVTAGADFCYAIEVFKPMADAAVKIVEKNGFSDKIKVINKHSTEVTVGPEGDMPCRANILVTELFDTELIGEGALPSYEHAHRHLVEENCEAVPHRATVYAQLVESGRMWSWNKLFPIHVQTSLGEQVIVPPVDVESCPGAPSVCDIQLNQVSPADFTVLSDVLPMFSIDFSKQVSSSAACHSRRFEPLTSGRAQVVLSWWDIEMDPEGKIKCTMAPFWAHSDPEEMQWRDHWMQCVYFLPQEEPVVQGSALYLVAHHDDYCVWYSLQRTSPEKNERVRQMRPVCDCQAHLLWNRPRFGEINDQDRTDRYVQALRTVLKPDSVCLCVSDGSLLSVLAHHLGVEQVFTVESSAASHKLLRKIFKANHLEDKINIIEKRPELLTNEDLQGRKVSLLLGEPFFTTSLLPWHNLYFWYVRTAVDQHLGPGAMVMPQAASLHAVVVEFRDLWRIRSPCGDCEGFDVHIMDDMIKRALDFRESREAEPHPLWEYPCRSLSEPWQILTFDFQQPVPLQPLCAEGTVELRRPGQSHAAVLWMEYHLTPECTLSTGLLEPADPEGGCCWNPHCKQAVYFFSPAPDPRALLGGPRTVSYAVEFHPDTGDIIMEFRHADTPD
On the set-up: method as in PMID 35482954. The note with it: heatmap of Figure 2; cited from earlier work.

Another test concerns the target T2, PRMT1 (Homo sapiens, UniProt Q99873).
T2 construct: PRMT1 (residues 2–371, C-terminus); with an N-terminal GST-tag; GST (N); purchased Reaction Biology Corporation
The test can be described thus: HotSpot radioisotope-based filter assay, PRMT1. Type of test: biochemical. Conditions: Figure 2; from IC50 values of ref 31. As to the method: (§1) Then, ^3H-SAM (final concentration of 1 μM) was delivered into the reaction mixture to initiate the reaction. After incubation for 60 min at 30 °C, the reaction mixture was delivered to filter-paper for detection (as assessed by scintillation). Data were analyzed using Excel and GraphPad Prism 6.0 software (GraphPad Software Inc., San Diego, CA) for IC50 curve fits using sigmoidal dose vs response - variable slope (four parameters) equations.

The target of test [2] is T1, PRMT7. The test can be described thus: HotSpot radioisotope-based filter assay, PRMT7. Type of test: biochemical. Conditions: 5 μM GST-GAR, 3H-SAM 1 μM. As to the method: as §1
In a further test the target is T3, DOT1L/KMT4 (Homo sapiens, UniProt Q8TEK3).
T3 construct: the human recombinant DOT1L (residues 1–416); N-terminal GST-tag; GST (N); purchased Reaction Biology Corporation
The test can be described thus: HotSpot KMT activity assay, DOT1L. Type of test: biochemical. As to the method:
Then, ^3H-SAM (final concentration 1 μM) was delivered into the reaction mixture to initiate the reaction. After incubation for 60 min at 30 °C, the reaction mixture was delivered to filter paper for detection (as assessed by scintillation). […] No inhibitor control (DMSO) was considered as showing 100% enzyme activity. Data were analyzed using Excel and GraphPad Prism 6.0 software (GraphPad Software Inc., San Diego, CA). Values obtained for each compound are mean ± SD determined for two separate experiments.

Test [3] has as its target T4, MLL1/KMT2A (5 component complex) (Homo sapiens, UniProt Q03164).
T4 construct: MLL1 residues 3745–3969, C-terminus; His (N); purchased Reaction Biology Corporation
The test can be described thus: HotSpot KMT activity assay, MLL1. Conditions: read-out: % MLL1 residual activity. Type of test: biochemical. The source says:
; MW = 35.4 kDa; Genbank Accession # NM_018489), or the human recombinant EZH2-containing five-member polycomb repressive complex 2 (including EZH2 residues 2–746, AEBP2 2–517, EED 2–441, RbAp48 2–425, SUZ12 2–739; all full-length; with N-terminal Flag-tag on EED and N-terminal His-tag on all others; MW = 333.8 kDa; Genbank Accession # NM_001203247, NM_001114176, NM_003797, NM_005610, NM_015355), or the human recombinant G9a (residues 913–1193, C-terminus; with an N-terminal His-tag; MW = 34.6 kDa; Genbank Accession # NM_006709.3), or the human recombinant MLL1 complex (including MLL1 residues 3745–3969, C-terminus, WDR5 22–334, C-terminus, RbBP5 1–538, C-terminus, ASH2L 2–534, C-terminus, DPY-30 1–99, C-terminus; N-terminal His-tag on all subunits; MW = 212.0 kDa; Genbank Accession # NM_005933, NM_017588, NM_005057, NM_001105214, NM_0325742), or the human recombinant SET7/9 (residues 2–366, C-terminus; with a N-terminal GST-tag and a C-terminal His-tag; MW = 68.5 kDa; Genbank Accession # NM_030648), or the human recombinant SMYD3 (residues 2–428, C-terminus; C-terminal His-tag; MW = 50.1 kDa; Genbank Accession # NM_001167740), or the human recombinant SUV39H2 (residues 46–410, C-terminus; N-terminal fusion protein with a C-terminal His-tag; MW = 98.8 kDa; GenBank Accession No. NM_001193424), or the human recombinant DOT1L (residues 1–416; N-terminal GST-tag; MW = 80.0 kDa; Genbank Accession # NM_032482) was added to a solution of the proper substrate (oligo nucleosomes for ASH1L, MLL1 complex, and DOT1L, final concentration 0.05 mg/mL; core histone for EZH2 complex and SET7/9, final concentration 0.05 mg/mL; histone H3 for SUV39H2, final concentration 5 μM; histone H3 1–21 for G9a, final concentration 2.5 μM) in freshly prepared reaction buffer (50 mM Tris-HCl (pH 8.5), 5 mM MgCl2, 50 mM NaCl, 1 mM DTT, 1 mM PMSF, 1% DMSO) and gently mixed. […] After incubation for 60 min at 30 °C, the reaction mixture was delivered to filter paper for detection (as assessed by scintillation). […] Values obtained for each compound are mean ± SD determined for two separate experiments.

Where two headings read alike, the source gives them in different places.

Here are results for 3 compounds from publication PMC10578352, “Identification of a Protein Arginine Methyltransferase 7 (PRMT7)/Protein Arginine Methyltransferase 9 (PRMT9) Inhibitor” (Journal of Medicinal Chemistry, 2023).

T3 sequence (Q8TEK3 1-416): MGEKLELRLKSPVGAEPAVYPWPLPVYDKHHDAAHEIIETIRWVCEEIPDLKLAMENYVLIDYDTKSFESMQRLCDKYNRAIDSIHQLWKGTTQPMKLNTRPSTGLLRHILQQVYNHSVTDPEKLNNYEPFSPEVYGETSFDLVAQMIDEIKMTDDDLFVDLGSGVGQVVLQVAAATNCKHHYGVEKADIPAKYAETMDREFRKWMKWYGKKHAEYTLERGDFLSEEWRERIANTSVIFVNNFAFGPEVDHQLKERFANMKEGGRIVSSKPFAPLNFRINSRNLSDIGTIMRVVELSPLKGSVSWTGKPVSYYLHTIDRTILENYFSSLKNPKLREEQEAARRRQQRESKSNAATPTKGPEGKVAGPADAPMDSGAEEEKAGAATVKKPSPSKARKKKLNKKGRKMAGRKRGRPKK
T2 sequence (Q99873 2-371): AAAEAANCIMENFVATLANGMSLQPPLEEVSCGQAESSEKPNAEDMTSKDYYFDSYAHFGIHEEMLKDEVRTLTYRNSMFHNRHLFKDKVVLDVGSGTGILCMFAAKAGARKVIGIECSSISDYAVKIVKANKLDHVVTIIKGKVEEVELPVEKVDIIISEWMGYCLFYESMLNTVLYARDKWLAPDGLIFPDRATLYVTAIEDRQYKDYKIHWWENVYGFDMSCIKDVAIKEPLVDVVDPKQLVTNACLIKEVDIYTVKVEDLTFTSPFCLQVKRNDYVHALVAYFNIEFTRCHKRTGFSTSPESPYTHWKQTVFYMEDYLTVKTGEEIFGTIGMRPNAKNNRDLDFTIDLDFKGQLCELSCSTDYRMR

One may read the IC50 as the midpoint of a concentration-inhibition curve. For `COC(=O)c1cc(O)c2cc(NC(=O)NCCCNC(=N)NC[C@H]3O[C@@H](n4cnc5c(N)ncnc54)[C@H](O)[C@@H]3O)ccc2c1` [1a], the IC50 at PRMT7 [1] was 0.315 µM.
Take `COC(=O)c1cc(O)c2cc(NC(=O)NCCCCCNC(=N)NC[C@H]3O[C@@H](n4cnc5c(N)ncnc54)[C@H](O)[C@@H]3O)ccc2c1` [1c]: the “selectivity index for PRMT7 over PRMT1” value at PRMT1 came to 38 fold.
In the case of `COC(=O)c1cc(O)c2cc(NC(=O)NCCCNC(=N)NC[C@H]3O[C@@H](n4cnc5c(N)ncnc54)[C@H](O)[C@@H]3O)cc(C(F)(F)F)c2c1` [1j, Methyl 6-(3-(3-(3-(((2R,3S,4R,5R)-5-(6-Amino-9H-purin-9-yl)-3,4-dihydroxytetrahydrofuran-2-yl)methyl)guanidino)propyl)ureido)-4-hydroxy-8-(trifluoromethyl)-2-naphthoate], at PRMT7 [2], half-maximal inhibition (IC50) was put at 5.6 µM. In addition, at DOT1L/KMT4 (10 μM), the “inhibition of DOT1L/KMT4 (in words)” value is on record as “significantly inhibited”. Also, the remaining activity at 10 µM on DOT1L/KMT4 (10 μM, read-out: % DOT1L residual activity) was determined as 11.2 ± 0.88%; in test [3] (10 μM), 90.5 ± 2.83%. Moreover, the remaining activity at 100 µM on DOT1L/KMT4 (100 μM, read-out: % DOT1L residual activity) turned out to be 1.35 ± 0.17%; in test [3] (100 μM) it was 76.9 ± 3.96%.
